The results in this text go back to patent US7872045B2, “Combination therapy for glaucoma treatment” (Allergan, Inc., priority 2001, dated 2011).

For assay [1], the target named is T1, human EP3 receptor (hEP3, D isoform) (Homo sapiens, UniProt P43115).
T1 construct: expressed in transfected cells; host or cells: COS-7 cells, transient transfection with pcDNA3 (lipofectin); plasma membrane fraction
T1 sequence (P43115 1-374 isoform P43115-4): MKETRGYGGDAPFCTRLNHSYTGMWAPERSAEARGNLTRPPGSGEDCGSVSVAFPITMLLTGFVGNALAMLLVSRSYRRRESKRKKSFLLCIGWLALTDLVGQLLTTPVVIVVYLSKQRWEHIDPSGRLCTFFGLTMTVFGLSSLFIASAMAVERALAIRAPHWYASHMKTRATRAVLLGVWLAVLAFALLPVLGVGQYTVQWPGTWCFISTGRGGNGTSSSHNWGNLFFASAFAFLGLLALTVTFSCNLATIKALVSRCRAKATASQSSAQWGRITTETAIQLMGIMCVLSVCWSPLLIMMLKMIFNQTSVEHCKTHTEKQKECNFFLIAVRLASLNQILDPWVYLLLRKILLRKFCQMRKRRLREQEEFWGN
The assay is described as follows: Radioligand binding competition vs [3H]PGE2, human recombinant EP3 receptor. The following applies: [3H]PGE2 competition, plasma membranes of transfected cells (COS-7 transient; HEK-293 also named), 60 min 25° C. As to the method: (§1) HEK-293 cells stably expressing the human or feline FP receptor, or EP1, EP2, EP3, or EP4 receptors were washed with TME buffer, scraped from the bottom of the flasks, and homogenized for 30 sec using a Brinkman PT 10/35 polytron. TME buffer was added to achieve a final 40 ml volume in the centrifuge tubes (the composition of TME is […]; ION HCl is added to achieve a pH of 7.4).
(§2) [^3H-] PGE2 (5 nM; specific activity 180 Ci mmol) was used as the radioligand for EP receptors. Binding studies employing EP1, EP2, EP3, EP4 were performed in duplicate in at least three separate experiments. A 200 μl assay volume was used. Incubations were for 60 min at 25° C. and were terminated by the addition of 4 ml of ice-cold 50 mM TRIS-HCl, followed by rapid filtration through Whatman GF/B filters and three additional 4 ml washes in a cell harvester (Brandel). Non-specific binding determined with 10^−5M of unlabeled PGE2,.
Human Recombinant EP3 and TP Receptors: Transient Transfectants.
Plasmids encoding the human EP3 (D isoform) or TP receptor were prepared by cloning the respective coding sequences into a pcDNA3 vector (Invitrogen). COS-7 cells were transfected with pcDNA3 containing cDNA encoding the EP3 or TP receptor by employing the lipofectin method, according to the manufacturers instructions (Gibco). For radioligand binding studies, cells were harvested two days after transfection.
Radioligand binding studies on plasma membrane fractions prepared from cells were performed as follows. Cells washed with TME buffer were scraped from the bottom of the plates and homogenized for 30 sec using a Brinkman PT 10/35 polytron. TME buffer was added as necessary to achieve a 40 ml volume in the centrifuge tubes. TME is comprised of 50 mM TRIS base, 10 mM MgCl2, 1 mM EDTA; pH 7.4 is achieved by adding 1 N HCl. The cell homogenate was centrifuged at 19,000 rpm for 20-25 min at 4° C. using a Beckman Ti-60 or T ? -70 rotor. The pellet was then resuspended in TME buffer to provide a final protein concentration of 1 mg/ml, as determined by Bio-Rad assay. Radioligand binding assays were performed in a 100 μl or 200 μl volume.
The binding of [^3H] PGE2 (specific activity 165 Ci/mmol) was determined in duplicate and, in at least 3 separate experiments. Incubations were for 60 min at 25° C. and were terminated by the addition of 4 ml of ice-cold 50 mM TRIS-HCl followed by rapid filtration through Whatman GF/B filters and three additional 4 ml washes in a cell harvester (Brandel). Competition studies were performed using a final concentration of 2.5 or 5 nM [H] PGE2 and non-specific binding was determined with 10^−5 M unlabelled PGE2.

In assay [2] the target is T2, human EP4 receptor (hEP4) (Homo sapiens, UniProt P35408).
T2 construct: expressed in transfected cells; plasma membrane fraction
The assay is described as follows: Radioligand binding competition vs [3H]PGE2, human recombinant EP4 receptor. The following applies: [3H]PGE2 competition, plasma membranes of HEK-293 stable transfectants, 60 min 25° C. The procedure: (§3) Human Recombinant EP1, EP2, EP4, and FP Receptors: Stable Transfectants
as §1
(§4) The cell homogenate was centrifuged at 19000 r.p.m. for 20 min at 4° C. using a Beckman Ti-60 rotor. The resultant pellet was resuspended in TME buffer to give a final 1 mg/ml protein concentration, as determined by Biorad assay. Radioligand binding competition assays vs. [^3H-]17 -phenyl PGF2α (5 nM) were performed in a 100 μl volume for 60 min. Binding reactions were started by adding plasma membrane fraction. The reaction was terminated by the addition of 4 ml ice-cold TRIS-HCl buffer and rapid filtration through glass fiber GF/B filters using a Brandel cell harvester. The filters were washed 3 times with ice-cold buffer and oven dried for one hour. Non-specific binding was determined with 10 uM unlabeled 17 -phenyl PGF2α.
as §2
(§5) Plasmids encoding the human EP1, EP2, EP4, and FP receptors were prepared by cloning the respective coding sequences into the eukaryotic expression vector pCEP4 (Invitrogen). The pCEP4 vector contains an Epstein Barr virus (EBV) origin of replication, which permits episomal replication in primate cell lines expressing EBV nuclear antigen (EBNA-1). Similarly, competitive experiments were caried out using [3H]17-phenylPGF2α at 5 nM in the presence of test ligands at various concentrations. Also non-specific binding was, determined in the presence of excess unlabeled PGF2α (10^−5 M).
(§6) It also contains a hygromycin resistance gene that is used for eukaryotic selection. The cells employed for stable transfection were human embryonic kidney cells (HEK-293) that were transfected with and express the EBNA-1 protein. These HEK-293-EBNA cells (Invitrogen) were grown in medium containing Geneticin (G418) to maintain expression of the EBNA-1 protein. HEK-293 cells were grown in DMEM with 10% fetal bovine serum (FBS), 250 μg ml G418 (Life Technologies) and 200 μg ml^−1 gentamicin or penicillin/streptomycin.
(§7) For transfection, the cells were grown to 50-60% confluency on 10 cm plates. The plasmid pCEP4 incorporating cDNA inserts for the respective human prostanoid receptor (20 μg) was added to 500 μl of 250 mM CaCl2. HEPES buffered saline ×2 (2×HBS, 280 mM NaCl, 20 mM HEPES acid, 1.5 mM Na2 HPO4, pH 7.05-7.12) was then added dropwise to a total of […], with continuous vortexing at room temperature. After 30 min, 9 ml DMEM were added to the mixture. The DNA/DMEM/calcium phosphate mixture was then added to the cells, which had been previously rinsed with 10 ml PBS. The cells were then incubated for 5 hr at 37° C. in humidified 95% air/5% CO2. The calcium phosphate solution was then removed and the cells were treated with 10% glycerol in DMEM for 2 min. The glycerol solution was then replaced by DMEM with 10% FBS. The cells were incubated overnight and the medium was replaced by DMEM/10% FBS containing 250 μg ml^−1 G418 and penicillin/streptomycin. The following day hygromycin B was added to a final concentration of 200 μg ml^−1. […]

Assay [3] concerns the target T3, human EP2 receptor (hEP2) (Homo sapiens, UniProt P43116).
T3 construct: expressed in transfected cells; plasma membrane fraction
Nature of the assay: Radioligand binding competition vs [3H]PGE2, human recombinant EP2 receptor. The note with it: [3H]PGE2 competition, plasma membranes of HEK-293 stable transfectants, 60 min 25° C. As to the method: as §3, §1, §4, §2, §5, §6, §7

T2 sequence (P35408 whole entry): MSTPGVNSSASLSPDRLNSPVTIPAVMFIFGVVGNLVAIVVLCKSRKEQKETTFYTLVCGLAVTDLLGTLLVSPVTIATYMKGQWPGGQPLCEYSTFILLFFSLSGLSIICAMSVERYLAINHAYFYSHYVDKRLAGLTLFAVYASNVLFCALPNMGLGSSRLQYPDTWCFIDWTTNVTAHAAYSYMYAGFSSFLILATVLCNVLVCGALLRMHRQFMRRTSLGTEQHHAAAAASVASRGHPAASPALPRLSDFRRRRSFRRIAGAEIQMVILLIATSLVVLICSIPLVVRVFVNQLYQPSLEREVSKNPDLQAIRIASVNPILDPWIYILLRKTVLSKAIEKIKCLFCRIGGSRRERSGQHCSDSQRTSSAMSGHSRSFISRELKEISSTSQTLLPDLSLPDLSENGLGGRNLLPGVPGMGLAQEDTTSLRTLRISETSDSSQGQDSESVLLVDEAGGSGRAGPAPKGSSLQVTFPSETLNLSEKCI
T3 sequence (P43116 whole entry): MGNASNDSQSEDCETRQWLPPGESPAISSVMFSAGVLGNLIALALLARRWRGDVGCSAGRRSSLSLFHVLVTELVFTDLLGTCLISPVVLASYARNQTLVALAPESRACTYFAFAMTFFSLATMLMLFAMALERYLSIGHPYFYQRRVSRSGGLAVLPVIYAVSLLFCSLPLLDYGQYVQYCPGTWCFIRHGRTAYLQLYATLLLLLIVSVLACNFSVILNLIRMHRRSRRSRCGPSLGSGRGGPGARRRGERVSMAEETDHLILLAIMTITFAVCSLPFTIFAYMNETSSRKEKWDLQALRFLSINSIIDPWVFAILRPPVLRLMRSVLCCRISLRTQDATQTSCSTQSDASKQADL

With `O=C(O)CSCCCS[C@H]1C(=O)C[C@@H](O)[C@@H]1/C=C/C(O)CCc1ccc2ccccc2c1` (single isomer, unassigned) [Example 10H], the IC50 – broadly, the concentration that inhibits the measured activity by half – in assay [1] was greater than 10000 nM; in assay [2], 450 nM; in assay [3] it was greater than 10000 nM.

In the case of `O=C(O)CSCCCS[C@H]1C(=O)C[C@@H](O)[C@@H]1/C=C/C(O)CCc1ccc2ccccc2c1` (single isomer, unassigned) [Example 10L], the IC50 in assay [1] was 8300 nM; in assay [2] it was 19.5 nM; in assay [3] it was greater than 10000 nM.

Turning to `O=C(O)CSCCCS[C@H]1C(=O)C[C@@H](O)[C@@H]1/C=C/C(O)Cc1ccc2ccccc2c1` (single isomer, unassigned) [Example 22L], the IC50 in assay [1] was greater than 10000 nM; in assay [2], 6.2 nM; in assay [3], greater than 10000 nM.

As to `COC(=O)CSCCCS[C@H]1C(=O)C[C@@H](O)[C@@H]1/C=C/C(O)Cc1csc2ccccc12` (single isomer, unassigned) [Example 24L], the IC50 in assay [1] is greater than 10000 nM; in assay [2] it was 30 nM; in assay [3] it was 9300 nM.

Turning to `O=C(O)CSCCCS[C@H]1C(=O)C[C@@H](O)[C@@H]1/C=C/C(O)Cc1csc2ccccc12` (single isomer, unassigned) [Example 25H], the IC50 in assay [2] is 69 nM; in assay [3], greater than 10000 nM.

As to `O=C(O)CSCCCS[C@H]1C(=O)C[C@@H](O)[C@@H]1/C=C/C(O)Cc1csc2ccccc12` (single isomer, unassigned) [Example 25L], the IC50 in assay [1] was greater than 10000 nM; in assay [2], 5 nM; in assay [3] it was 2200 nM.

As to `COC(=O)CSCCCS[C@H]1C(=O)C[C@@H](O)[C@@H]1/C=C/[C@@H](O)CCc1cc2ccccc2s1` [Example 13L, {3-[(1R,2S,3R)-3-Hydroxy-2-((S)-(E)-3-hydroxy-5-(benzothienyl)pent-1-enyl)-5-oxocyclopentylsulfanyl]propylsulfanyl}acetic acid methyl ester], the IC50 was 7200 nM in assay [1], 93 nM in assay [2] and greater than 10000 nM in assay [3].

As to `O=C(O)CSCCCS[C@H]1C(=O)C[C@@H](O)[C@@H]1/C=C/[C@@H](O)CCc1cc2ccccc2s1` [Example 14H, {3-[(1R,2S,3R)-3-Hydroxy-2-((S)-(E)-3-hydroxy-5-(benzothienyl)pent-1-enyl)-5-oxocyclopentylsulfanyl]propylsulfanyl}acetic acid], the IC50 in assay [1] is greater than 10000 nM; in assay [2], 27 nM; in assay [3], greater than 10000 nM.

Turning to `O=C(O)CSCCCS[C@H]1C(=O)C[C@@H](O)[C@@H]1/C=C/[C@@H](O)CCc1cc2ccccc2s1` [Example 14L, {3-[(1R,2S,3R)-3-Hydroxy-2-((S)-(E)-3-hydroxy-5-(benzothienyl)pent-1-enyl)-5-oxocyclopentylsulfanyl]propylsulfanyl}acetic acid], the figures for the IC50 in assay [1], in assay [2] and in assay [3] were greater than 10000 nM, 13 nM and no less than 10000 nM, respectively.

As for `CC(O)(/C=C/[C@H]1[C@H](O)CC(=O)[C@@H]1SCCCSCC(=O)O)Cc1ccc2ccccc2c1` (stereo partly drawn) [Example 31L, {3-[(1R,2S,3R)-3-Hydroxy-2-((E)-3-hydroxy-3-methyl-4-naphthalen-2-yl-but-1-enyl)-5-oxocyclopentylsulfanyl]propylsulfanyl}acetic acid], the figures for the IC50 in assay [1] and in assay [2] were 9300 nM and 900 nM, respectively.

On to `C[C@@](O)(/C=C/[C@H]1[C@H](O)CC(=O)[C@@H]1SCCCSCC(=O)O)CCc1cc2ccccc2s1` [Example 34H, {3-[(1R,2S,3R)-3-Hydroxy-2-((S)-(E)-3-(hydroxy)-3-(methyl)-5-(benzothienyl)pent-1-enyl)-5-oxocyclopentylsulfanyl]propylsulfanyl}acetic acid], for which the IC50 in assay [1] was greater than 10000 nM; in assay [2] it was 32 nM; in assay [3], greater than 10000 nM.

For `C[C@@](O)(/C=C/[C@H]1[C@H](O)CC(=O)[C@@H]1SCCCSCC(=O)O)CCc1cc2ccccc2s1` [Example 34L, {3-[(1R,2S,3R)-3-Hydroxy-2-((S)-(E)-3-(hydroxy)-3-(methyl)-5-(benzothienyl)pent-1-enyl)-5-oxocyclopentylsulfanyl]propylsulfanyl}acetic acid], the concentration for half-maximal inhibition (IC50) was greater than 10000 nM in assay [1] and 68 nM in assay [2].
